Experimental data as given in PMC6979384, “Characterization of the plant homeodomain (PHD) reader family for their histone tail interactions” (Epigenetics & Chromatin, 2020).

Experiments:
Assay in all cases: Histone peptide microarray
Type in all cases: binding, human
AIRE (PP) = conditions: GST-tagged AIRE (PP), sheet Array Heatmap, each array performed twice, total n = 4
In short: (§1)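 GST-PHD reader, 0.5 μM, probed on 293-peptide histone array (single/combinatorial PTMs); optimized array protocol; signal = mean ± SD, n = 4.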

BAZ2B = conditions: GST-tagged BAZ2B, sheet Array Heatmap, each array performed twice, total n = 4
In short: as §1

BPTF (PB) = conditions: GST-tagged BPTF (PB = PHD + Bromodomain), sheet Array Heatmap, each array performed twice, total n = 4
In short: as §1

CHD5 (PCC) = conditions: GST-tagged CHD5 (PCC = PHD + Dual Chromodomain), sheet Array Heatmap, each array performed twice, total n = 4
In short: as §1

DIDO1 = conditions: GST-tagged DIDO1, sheet Array Heatmap, each array performed twice, total n = 4
In short: as §1

DPF2 (PPC2W2) = conditions: GST-tagged DPF2 (PPC2W2 = Dual PHD + C2W2-type Zn-finger), sheet Array Heatmap, each array performed twice, total n = 4
In short: as §1

ING1 = conditions: GST-tagged ING1, sheet Array Heatmap, each array performed twice, total n = 4
In short: as §1

ING2 = conditions: GST-tagged ING2, sheet Array Heatmap, each array performed twice, total n = 4
In short: as §1

ING3 = conditions: GST-tagged ING3, sheet Array Heatmap, each array performed twice, total n = 4
In short: as §1

ING4 = conditions: GST-tagged ING4, sheet Array Heatmap, each array performed twice, total n = 4
In short: as §1

ING5 = conditions: GST-tagged ING5, sheet Array Heatmap, each array performed twice, total n = 4
In short: as §1

KDM4C (TTP) = conditions: GST-tagged KDM4C (TTP = Tandem Tudor domain + PHD), sheet Array Heatmap, each array performed twice, total n = 4
In short: as §1

KDM5A (1) = conditions: GST-tagged KDM5A (1), sheet Array Heatmap, each array performed twice, total n = 4
In short: as §1

KDM5B (1) = conditions: GST-tagged KDM5B (1), sheet Array Heatmap, each array performed twice, total n = 4
In short: as §1

KDM5B (3) = conditions: GST-tagged KDM5B (3), sheet Array Heatmap, each array performed twice, total n = 4
In short: as §1

KDM7A = conditions: GST-tagged KDM7A, sheet Array Heatmap, each array performed twice, total n = 4
In short: as §1

MLL5 = conditions: GST-tagged MLL5, sheet Array Heatmap, each array performed twice, total n = 4
In short: as §1

MORC3 (CW) = conditions: GST-tagged MORC3 (CW = CW-type Zn-finger), sheet Array Heatmap, each array performed twice, total n = 4
In short: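 GST-tagged PHD finger readers were expressed, purified and applied at 0.5 μM to a microarray of 293 synthetic histone peptides carrying single or combinatorial PTMs, using an optimized protocol. Binding signals are averages with standard deviation from 4 replicates.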

PHF13 = conditions: GST-tagged PHF13, sheet Array Heatmap, each array performed twice, total n = 4
In short: as §1

PHF21A = conditions: GST-tagged PHF21A, sheet Array Heatmap, each array performed twice, total n = 4
In short: as §1

PHF23 = conditions: GST-tagged PHF23, sheet Array Heatmap, each array performed twice, total n = 4
In short: as §1

PHF2 = conditions: GST-tagged PHF2, sheet Array Heatmap, each array performed twice, total n = 4
In short: as §1

PHF8 = conditions: GST-tagged PHF8, sheet Array Heatmap, each array performed twice, total n = 4
In short: as §1

PHRF1 (RP) = conditions: GST-tagged PHRF1 (RP), sheet Array Heatmap, each array performed twice, total n = 4
In short: as §1

RAG2 = conditions: GST-tagged RAG2, sheet Array Heatmap, each array performed twice, total n = 4
In short: as §1

SP140L = conditions: GST-tagged SP140L, sheet Array Heatmap, each array performed twice, total n = 4
In short: as §1

TAF3 = conditions: GST-tagged TAF3, sheet Array Heatmap, each array performed twice, total n = 4
In short: as §1

## H3K9ac: H3 1-20 [Peptide H3K9ac]
AIRE (PP); listed as 2
  Array Heatmap signal (histone peptide microarray): 0.4059
AIRE (PP); listed as 3
  Array Heatmap signal (histone peptide microarray): 0.3893
BAZ2B; listed as 2
  Array Heatmap signal (histone peptide microarray): 0.4731
BAZ2B; listed as 3
  Array Heatmap signal (histone peptide microarray): 0.4634
BPTF (PB); listed as 2
  Array Heatmap signal (histone peptide microarray): 0.3339
BPTF (PB); listed as 3
  Array Heatmap signal (histone peptide microarray): 0.3268
CHD5 (PCC); listed as 2
  Array Heatmap signal (histone peptide microarray): 0.8342
CHD5 (PCC); listed as 3
  Array Heatmap signal (histone peptide microarray): 0.7526
DIDO1; listed as 2
  Array Heatmap signal (histone peptide microarray): 0.6642
DIDO1; listed as 3
  Array Heatmap signal (histone peptide microarray): 0.7409
DPF2 (PPC2W2); listed as 2
  Array Heatmap signal (histone peptide microarray): 0.7428
DPF2 (PPC2W2); listed as 3
  Array Heatmap signal (histone peptide microarray): 0.7589
ING1; listed as 2
  Array Heatmap signal (histone peptide microarray): 0.5257
ING1; listed as 3
  Array Heatmap signal (histone peptide microarray): 0.5645
ING2; listed as 2
  Array Heatmap signal (histone peptide microarray): 0.6059
ING2; listed as 3
  Array Heatmap signal (histone peptide microarray): 0.6036
ING3; listed as 2
  Array Heatmap signal (histone peptide microarray): 0.4489
ING3; listed as 3
  Array Heatmap signal (histone peptide microarray): 0.4338
ING4; listed as 2
  Array Heatmap signal (histone peptide microarray): 0.4346
ING4; listed as 3
  Array Heatmap signal (histone peptide microarray): 0.4319
ING5; listed as 2
  Array Heatmap signal (histone peptide microarray): 0.3289
ING5; listed as 3
  Array Heatmap signal (histone peptide microarray): 0.3311
KDM4C (TTP); listed as 2
  Array Heatmap signal (histone peptide microarray): 0.4318
KDM4C (TTP); listed as 3
  Array Heatmap signal (histone peptide microarray): 0.4332
KDM5A (1); listed as 2
  Array Heatmap signal (histone peptide microarray): 0.4743
KDM5A (1); listed as 3
  Array Heatmap signal (histone peptide microarray): 0.4479
KDM5B (1); listed as 2
  Array Heatmap signal (histone peptide microarray): 0.6899
KDM5B (1); listed as 3
  Array Heatmap signal (histone peptide microarray): 0.6761
KDM5B (3); listed as 2
  Array Heatmap signal (histone peptide microarray): 0.5795
KDM5B (3); listed as 3
  Array Heatmap signal (histone peptide microarray): 0.5654
KDM7A; listed as 2
  Array Heatmap signal (histone peptide microarray): 0.303
KDM7A; listed as 3
  Array Heatmap signal (histone peptide microarray): 0.3051
MLL5; listed as 2
  Array Heatmap signal (histone peptide microarray): 0.5361
MLL5; listed as 3
  Array Heatmap signal (histone peptide microarray): 0.5261
MORC3 (CW); listed as 2
  Array Heatmap signal (histone peptide microarray): 0.5166
MORC3 (CW); listed as 3
  Array Heatmap signal (histone peptide microarray): 0.5177
PHF13; listed as 2
  Array Heatmap signal (histone peptide microarray): 0.5811
PHF13; listed as 3
  Array Heatmap signal (histone peptide microarray): 0.5738
PHF21A; listed as 2
  Array Heatmap signal (histone peptide microarray): 0.4621
PHF21A; listed as 3
  Array Heatmap signal (histone peptide microarray): 0.47
PHF23; listed as 2
  Array Heatmap signal (histone peptide microarray): 0.5351
PHF23; listed as 3
  Array Heatmap signal (histone peptide microarray): 0.5457
PHF2; listed as 2
  Array Heatmap signal (histone peptide microarray): 0.6188
PHF2; listed as 3
  Array Heatmap signal (histone peptide microarray): 0.5837
PHF8; listed as 2
  Array Heatmap signal (histone peptide microarray): 0.3437
PHF8; listed as 3
  Array Heatmap signal (histone peptide microarray): 0.3517
PHRF1 (RP); listed as 2
  Array Heatmap signal (histone peptide microarray): 0.9096
PHRF1 (RP); listed as 3
  Array Heatmap signal (histone peptide microarray): 0.8949
RAG2; listed as 2
  Array Heatmap signal (histone peptide microarray): 0.3184
RAG2; listed as 3
  Array Heatmap signal (histone peptide microarray): 0.2998
SP140L; listed as 2
  Array Heatmap signal (histone peptide microarray): 0.3674
SP140L; listed as 3
  Array Heatmap signal (histone peptide microarray): 0.3745
TAF3; listed as 2
  Array Heatmap signal (histone peptide microarray): 0.3565
TAF3; listed as 3
  Array Heatmap signal (histone peptide microarray): 0.3052
